According to ChEMBL document CHEMBL4325868, “Design, synthesis and antitubercular activity of 4-alkoxy-triazoloquinolones able to inhibit the M. tuberculosis DNA gyrase” (Eur J Med Chem, 2019):
Converted amounts (≈) assume the structure as drawn.

Assays:
Format in all cases: functional
[1] = system: Mycobacterium tuberculosis; experiment: Antitubercular activity against isoniazid resistant Mycobacterium tuberculosis isolate 1358 after 7 days by resazurin microtiter assay; conditions: isolate 1358, 168 h
[2] = system: Mycobacterium tuberculosis; experiment: Antitubercular activity against ciprofloxacin resistant Mycobacterium tuberculosis isolate 1670 after 7 days by resazurin microtiter assay; conditions: isolate 1670, 168 h
[3] = system: Mycobacterium tuberculosis; experiment: Antitubercular activity against multidrug resistant Mycobacterium tuberculosis isolate 512 after 7 days by resazurin microtiter assay; conditions: isolate 512, 168 h
[4] = system: Mycobacterium tuberculosis; experiment: Antitubercular activity against multidrug resistant Mycobacterium tuberculosis isolate 7 after 7 days by resazurin microtiter assay; conditions: isolate 7, 168 h
[5] = system: Mycobacterium tuberculosis; experiment: Antitubercular activity against rifampicin/ethambutol resistant Mycobacterium tuberculosis isolate 1726 after 7 days by resazurin microtiter assay; conditions: isolate 1726, 168 h
[6] = system: Mycobacterium tuberculosis; experiment: Antitubercular activity against streptomycin resistant Mycobacterium tuberculosis isolate 203 after 7 days by resazurin microtiter assay; conditions: isolate 203, 168 h
[7] = system: Mycobacterium tuberculosis; experiment: Antitubercular activity against streptomycin resistant Mycobacterium tuberculosis isolate 204 after 7 days by resazurin microtiter assay; conditions: isolate 204, 168 h
[8] = system: Mycobacterium tuberculosis; experiment: Antitubercular activity against streptomycin resistant Mycobacterium tuberculosis isolate 157 after 7 days by resazurin microtiter assay; conditions: isolate 157, 168 h
[9] = system: Mycobacterium tuberculosis; experiment: Antitubercular activity against isoniazid/ethambutol resistant Mycobacterium tuberculosis isolate 368 after 7 days by resazurin microtiter assay; conditions: isolate 368, 168 h
[10] = system: Mycobacterium tuberculosis; experiment: Antitubercular activity against multidrug resistant Mycobacterium tuberculosis isolate 571 after 7 days by resazurin microtiter assay; conditions: isolate 571, 168 h
[11] = system: Mycobacterium tuberculosis; experiment: Antitubercular activity against multidrug resistant Mycobacterium tuberculosis isolate 1120 after 7 days by resazurin microtiter assay; conditions: isolate 1120, 168 h
[12] = system: Mycobacterium tuberculosis; experiment: Antitubercular activity against ciprofloxacin resistant Mycobacterium tuberculosis isolate 600 after 7 days by resazurin microtiter assay; conditions: isolate 600, 168 h
[13] = system: Mycobacterium tuberculosis; experiment: Antitubercular activity against rifampicin resistant Mycobacterium tuberculosis isolate 952 after 7 days by resazurin microtiter assay; conditions: isolate 952, 168 h
[14] = system: Mycobacterium tuberculosis; experiment: Antitubercular activity against streptomycin/isoniazid/ethambutol resistant Mycobacterium tuberculosis isolate 1097 after 7 days by resazurin microtiter assay; conditions: isolate 1097, 168 h

SMILES	MIC [1] [µM]	MIC [2] [µM]	MIC [3] [µM]	MIC [4] [µM]	MIC [5] [µM]	MIC [6] [µM]	MIC [7] [µM]	MIC [8] [µM]	MIC [9] [µM]	MIC [10] [µM]	MIC [11] [µM]	MIC [12] [µM]	MIC [13] [µM]	MIC [14] [µM]
COc1cc2c(=O)c(C(=O)O)cn(C)c2c2nnn(C)c12	16 (≈ 4.61 µg/mL)	16 (≈ 4.61 µg/mL)	8 (≈ 2.31 µg/mL)	4 (≈ 1.15 µg/mL)	16 (≈ 4.61 µg/mL)	16 (≈ 4.61 µg/mL)	8 (≈ 2.31 µg/mL)	8 (≈ 2.31 µg/mL)	8 (≈ 2.31 µg/mL)	16 (≈ 4.61 µg/mL)	4 (≈ 1.15 µg/mL)	16 (≈ 4.61 µg/mL)	32 (≈ 9.22 µg/mL)	32 (≈ 9.22 µg/mL)
O=C(O)c1cn(C2CC2)c2cc(N3CCNCC3)c(F)cc2c1=O [CIPROFLOXACIN]	–	16 (≈ 5.3 µg/mL)	8 (≈ 2.65 µg/mL)	–	–	–	–	–	–	–	–	4 (≈ 1.33 µg/mL)	–	–
